This passage reports IC50 results from patent US9850283B2, “Macrocyclic inhibitors of the PD-1/PD-L1 and CD80(B7-1)/PD-L1 protein/protein interactions” (BRISTOL-MYERS SQUIBB COMPANY, priority 2013, dated 2017).

As a reminder, the IC50 is the concentration that gives 50% inhibition.

Structures are written as SMILES. Like-named read-outs stand apart in the source and are kept apart here. Positions of bridges follow the written chain, without caps; N, C: chain ends. Non-standard residues stand in square brackets, D forms with d. Residues, ends and D or L forms follow the SMILES beside them. ξ: configuration not given here. Phe(3,4-F2) = N[C@@H](Cc1ccc(F)c(F)c1)C(=O)O; Tyr(3-Br) = N[C@@H](Cc1ccc(O)c(Br)c1)C(=O)O; NMe2Nal = CN[C@@H](Cc1ccc2ccccc2c1)C(=O)O; ξPhe(βξ-Me) = CC(c1ccccc1)C(N)C(=O)O; Bta = N[C@@H](Cc1csc2ccccc12)C(=O)O; Hyp = O=C(O)[C@@H]1C[C@@H](O)CN1; NMeF = CN[C@@H](Cc1ccccc1)C(=O)O; NMeNle = CCCC[C@H](NC)C(=O)O; NMeA = CN[C@@H](C)C(=O)O; Orn = NCCC[C@H](N)C(=O)O; Dab = NCC[C@H](N)C(=O)O; Dap = NC[C@H](N)C(=O)O; Sar = CNCC(=O)O Bounds are passed on as bounds.

For experiment [1], the target named is T1, Human PD-L1/PD-1 (Homo sapiens, UniProt Q9NZQ7).
T1 construct: made in house; host or cells: HEK293T
T1 sequence (Q9NZQ7 with tags, fused parts or gaps): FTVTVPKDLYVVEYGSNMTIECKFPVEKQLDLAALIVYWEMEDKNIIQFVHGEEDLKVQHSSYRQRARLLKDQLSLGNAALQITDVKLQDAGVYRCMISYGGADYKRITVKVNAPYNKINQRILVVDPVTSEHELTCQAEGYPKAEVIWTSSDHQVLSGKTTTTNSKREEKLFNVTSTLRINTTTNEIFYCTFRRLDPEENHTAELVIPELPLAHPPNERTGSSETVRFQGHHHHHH
The experiment in a line: HTRF PD-1-Ig/PD-L1-His binding assay (human PD-L1). Particulars: cluster symbol; read-out: HTRF IC50 cluster. Put shortly:
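Interaction of Fc-tagged soluble PD-1 with His-tagged soluble PD-L1 is monitored by time-resolved FRET. Donor is europium cryptate anti-Ig (1 nM final) and acceptor is APC anti-His (20 nM final). Assay buffer is dPBS with 0.1% BSA and 0.05% Tween-20.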
On the technique in general: In TR-FRET formats the signal depends on donor and acceptor labels being close together.

In experiment [2] the target is T2, LK35.2-hPD-L1 cells / PE-labeled PD-1-Ig (Homo sapiens, UniProt Q9NZQ7).
T2 construct: expressed in transfected cells; host or cells: LK35.2 mouse B cell line
T2 sequence (Q9NZQ7 19-290): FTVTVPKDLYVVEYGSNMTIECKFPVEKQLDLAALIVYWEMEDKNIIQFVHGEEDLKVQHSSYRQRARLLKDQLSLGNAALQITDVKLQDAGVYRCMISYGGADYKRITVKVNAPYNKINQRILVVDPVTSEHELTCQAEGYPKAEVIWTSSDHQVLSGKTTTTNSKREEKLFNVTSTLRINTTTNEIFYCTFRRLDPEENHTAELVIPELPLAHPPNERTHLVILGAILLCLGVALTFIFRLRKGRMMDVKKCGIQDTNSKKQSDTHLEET
The experiment in a line: LK35.2-hPD-L1 cell binding high-content screening assay. The following applies: cluster symbol, read-out: CBA IC50 cluster. The class given is cell-based. Put shortly: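 Mouse LK35.2 B cells stably overexpressing human PD-L1 were cultured overnight in RPMI with 10% FCS, then given compound and PE-labeled human PD-1-Ig (1 nM final) for 1 h at 37 °C. After three dPBS washes, bound fluorescence was quantified by high-content imaging.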

The mark [3] stands for this setting: cell binding assay, cell line not given.
[4] abbreviates: cell line of CBA not given (LK35.2-hPD-L1 or 293T-hPD-L1).

For the molecule `CCCC[C@H]1C(=O)N(C)[C@@H](CCCC)C(=O)N[C@@H](CCCNC(=N)N)C(=O)N[C@H](C(=O)NCC(N)=O)CSCC(=O)N[C@@H](Cc2ccc(O)cc2)C(=O)N(C)[C@@H](C)C(=O)N[C@@H](CC(N)=O)C(=O)N2CCC[C@H]2C(=O)N[C@@H](Cc2cnc[nH]2)C(=O)N[C@@H](CCCN)C(=O)N2C[C@H](O)C[C@H]2C(=O)N[C@@H](Cc2c[nH]c3ccccc23)C(=O)N[C@@H](CO)C(=O)N[C@@H](Cc2c[nH]c3ccccc23)C(=O)N1C` [Example 5023] ({CH2CO}-Y[NMeA]NPH[Orn][Hyp]WSW[NMeNle][NMeNle]RCG-NH2; thioether N-14), the values for the IC50 in experiment [1] and in experiment [2] (setting [3]) were 6.76 to 30.3 nM and 4.78 to 72.9 nM, respectively.

On to `CCCC[C@H]1C(=O)N(C)[C@@H](CCCC)C(=O)N[C@@H](CCCNC(=N)N)C(=O)N[C@H](C(=O)NCC(N)=O)CSCC(=O)N[C@@H](Cc2ccc(F)c(F)c2)C(=O)N(C)[C@@H](C)C(=O)N[C@@H](CC(N)=O)C(=O)N2CCC[C@H]2C(=O)N[C@@H](Cc2cnc[nH]2)C(=O)N[C@@H](CC(C)C)C(=O)N(C)CC(=O)N[C@@H](Cc2c[nH]c3ccccc23)C(=O)N[C@@H](CO)C(=O)N[C@@H](Cc2c[nH]c3ccccc23)C(=O)N1C` [Example 1104] ({CH2CO}-[Phe(3,4-F2)][NMeA]NPHL[Sar]WSW[NMeNle][NMeNle]RCG-NH2; thioether N-14), for which the IC50 is 6.76 to 30.3 nM in experiment [1] and 4.78 to 72.9 nM in experiment [2] (setting [4]).

Consider `CCCC[C@H]1C(=O)N(C)[C@@H](CCCC)C(=O)N[C@@H](CCN)C(=O)N[C@H](C(=O)NCC(N)=O)CSCC(=O)N[C@@H](Cc2ccc(O)c(Br)c2)C(=O)N(C)[C@@H](C)C(=O)N[C@@H](CC(N)=O)C(=O)N2CCC[C@H]2C(=O)N[C@@H](Cc2cnc[nH]2)C(=O)N[C@@H](CC(C)C)C(=O)N2C[C@H](O)C[C@H]2C(=O)N[C@@H](Cc2c[nH]c3ccccc23)C(=O)N[C@@H](CCN)C(=O)N[C@@H](Cc2c[nH]c3ccccc23)C(=O)N1C` [Example 6036] ({CH2CO}-[Tyr(3-Br)][NMeA]NPHL[Hyp]W[Dab]W[NMeNle][NMeNle][Dab]CG-NH2; thioether N-14), for which the 50% inhibitory concentration (IC50) in experiment [1] was in the range of 0.385 to 6.74 nM; in experiment [2] (setting [3]), 0.158 to 4.71 nM.

Consider `CCCC[C@H]1C(=O)N(C)CC(=O)N[C@@H](CC(=O)O)C(=O)N[C@@H](C(C)C)C(=O)N(C)[C@@H](Cc2ccccc2)C(=O)N[C@@H](Cc2ccc(O)cc2)C(=O)N(C)CC(=O)N[C@@H](Cc2c[nH]c3ccccc23)C(=O)N[C@@H](Cc2ccc(O)cc2)C(=O)N[C@@H](CC(C)C)C(=O)N[C@H](C(=O)NCC(N)=O)CSCC(=O)NC(C(C)c2ccccc2)C(=O)N(C)[C@@H](Cc2ccccc2)C(=O)N1C` (stereo partly drawn) [Example 3516] ({CH2CO}-[ξPhe(βξ-Me)][NMeF][NMeNle][Sar]DV[NMeF]Y[Sar]WYLCG-NH2; thioether N-13), for which the IC50 is > 30.5 nM in experiment [1] and > 74.3 nM in experiment [2] (setting [3]).

In the case of `CCCC[C@H]1C(=O)N(C)CC(=O)N[C@@H](CC(=O)O)C(=O)N[C@@H](C(C)C)C(=O)N(C)[C@@H](Cc2ccccc2)C(=O)N[C@@H](Cc2ccc(O)cc2)C(=O)N(C)CC(=O)N[C@@H](Cc2c[nH]c3ccccc23)C(=O)N[C@@H](Cc2ccc(O)cc2)C(=O)N[C@@H](CCCNC(=N)N)C(=O)N[C@H](C(=O)NCC(N)=O)CSCC(=O)N[C@@H](Cc2ccccc2)C(=O)N(C)[C@@H](Cc2ccccc2)C(=O)N1C` [Example 3508] (HELM PEPTIDE1{[O=C(C[*:3])[*:2]].F.[meF].[CCCC[C@@H](C(=O)[*:2])N(C)[*:1]].[Sar].D.V.[meF].Y.[Sar].W.Y.R.C.G.[am]}$PEPTIDE1,PEPTIDE1,1:R3-14:R3$$$V2.0), the values for the IC50 in experiment [1] and in experiment [2] (setting [3]) were 0.385 to 6.74 nM and 4.78 to 72.9 nM, respectively.

For `CCCC[C@H]1C(=O)N2CCC[C@H]2C(=O)N[C@@H](CC(=O)O)C(=O)N[C@@H](C(C)C)C(=O)N(C)[C@@H](Cc2ccccc2)C(=O)N[C@@H](Cc2ccc(O)cc2)C(=O)N2CCC[C@H]2C(=O)N[C@@H](Cc2c[nH]c3ccccc23)C(=O)N[C@@H](Cc2ccc(O)cc2)C(=O)N[C@@H](CC(C)C)C(=O)N[C@H](C(=O)NCC(N)=O)CSCC(=O)N[C@@H](Cc2ccccc2)C(=O)N(C)[C@@H](Cc2ccccc2)C(=O)N1C` [Example 3070] (HELM PEPTIDE1{[O=C(C[*:3])[*:2]].F.[meF].[CCCC[C@@H](C(=O)[*:2])N(C)[*:1]].P.D.V.[meF].Y.P.W.Y.L.C.G.[am]}$PEPTIDE1,PEPTIDE1,1:R3-14:R3$$$V2.0), the figures for the IC50 in experiment [1] and in experiment [2] (setting [4]) were > 30.5 nM and > 74.3 nM, respectively.

In the case of `CCCC[C@H]1C(=O)N(C)[C@@H](CCCC)C(=O)N[C@@H](CCCNC(=N)N)C(=O)N[C@H](C(=O)NCC(N)=O)CSCC(=O)N[C@@H](Cc2ccc(O)cc2)C(=O)N(C)[C@@H](C)C(=O)N[C@@H](CC(N)=O)C(=O)N2CCC[C@H]2C(=O)N[C@@H](Cc2cnc[nH]2)C(=O)N[C@@H](CC(C)C)C(=O)N2C[C@H](O)C[C@H]2C(=O)N[C@@H](Cc2c[nH]c3ccccc23)C(=O)N[C@@H](CO)C(=O)N[C@@H](Cc2csc3ccccc23)C(=O)N1C` [Example 1035] ({CH2CO}-Y[NMeA]NPHL[Hyp]WS[Bta][NMeNle][NMeNle]RCG-NH2; thioether N-14), the IC50 in experiment [1] lay within 6.76 to 30.3 nM; in experiment [2] (setting [4]) it was 0.158 to 4.71 nM.

With `CCCC[C@H]1C(=O)N(C)[C@@H](CCCC)C(=O)N[C@@H](CN)C(=O)N[C@H](C(=O)NCC(N)=O)CSCC(=O)N[C@@H](Cc2ccc(O)cc2)C(=O)N(C)[C@@H](C)C(=O)N[C@@H](CC(N)=O)C(=O)N2CCC[C@H]2C(=O)N[C@@H](Cc2c[nH]cn2)C(=O)N[C@@H](CCC(=O)O)C(=O)N2C[C@H](O)C[C@H]2C(=O)N[C@@H](Cc2c[nH]c3ccccc23)C(=O)N[C@@H](CCN)C(=O)N[C@@H](Cc2c[nH]c3ccccc23)C(=O)N1C` [Example 5064] ({CH2CO}-Y[NMeA]NPHE[Hyp]W[Dab]W[NMeNle][NMeNle][Dap]CG-NH2; thioether N-14), the IC50 in experiment [1] was in the range of 0.385 to 6.74 nM; in experiment [2] (setting [3]), 0.158 to 4.71 nM.

As for `CCCC[C@H]1C(=O)N(C)[C@@H](CCCC)C(=O)N[C@@H](CCCNC(=N)N)C(=O)N[C@H](C(=O)NCC(N)=O)CSCC(=O)N[C@@H](Cc2ccccc2)C(=O)N(C)[C@@H](C)C(=O)N[C@@H](CC(N)=O)C(=O)N2CCC[C@H]2C(=O)N[C@@H](Cc2cnc[nH]2)C(=O)N[C@@H](CC(C)C)C(=O)N(C)CC(=O)N[C@@H](Cc2c[nH]c3ccccc23)C(=O)N[C@@H](Cc2cnc[nH]2)C(=O)N[C@@H](Cc2c[nH]c3ccccc23)C(=O)N1C` [Example 1068] ({CH2CO}-F[NMeA]NPHL[Sar]WHW[NMeNle][NMeNle]RCG-NH2; thioether N-14), the IC50 in experiment [1] is > 30.5 nM; in experiment [2] (setting [4]), > 74.3 nM.

For `CCCC[C@H]1C(=O)N(C)CC(=O)N[C@@H](CC(N)=O)C(=O)N[C@@H](C(C)C)C(=O)N(C)[C@@H](Cc2ccccc2)C(=O)N[C@@H](Cc2ccc(O)cc2)C(=O)N(C)CC(=O)N[C@@H](Cc2c[nH]c3ccccc23)C(=O)N[C@@H](Cc2ccc(O)cc2)C(=O)N[C@@H](CCCN)C(=O)N[C@H](C(=O)NCC(N)=O)CSCC(=O)N[C@@H](Cc2ccccc2)C(=O)N(C)[C@@H](Cc2ccc3ccccc3c2)C(=O)N1C` [Example 3603] ({CH2CO}-F[NMe2Nal][NMeNle][Sar]NV[NMeF]Y[Sar]WY[Orn]CG-NH2; thioether N-13), the values for the IC50 in experiment [1] and in experiment [2] (setting [3]) were 6.76 to 30.3 nM and 4.78 to 72.9 nM, respectively.
